Measurements as given in US20200102295A1, “NITROCATECHOL DERIVATIVES AS COMT INHIBITORS” (BIAL - PORTELA & CA, S.A., priority 2005, published 2020).

Legend:
[1] = target: T1, mouse liver COMT (Mus musculus, UniProt O88587); assay: Mouse liver COMT activity after oral administration of test compounds; assay type: in vivo; conditions: 3 mg/kg oral, 3 h after administration
T1 construct: Aliquots of 0.5 ml of liver homogenates were preincubated; from tissue; host or cells: mouse liver homogenate (NMRI mice, dosed orally; ex vivo activity)
T1 sequence (O88587 1-265): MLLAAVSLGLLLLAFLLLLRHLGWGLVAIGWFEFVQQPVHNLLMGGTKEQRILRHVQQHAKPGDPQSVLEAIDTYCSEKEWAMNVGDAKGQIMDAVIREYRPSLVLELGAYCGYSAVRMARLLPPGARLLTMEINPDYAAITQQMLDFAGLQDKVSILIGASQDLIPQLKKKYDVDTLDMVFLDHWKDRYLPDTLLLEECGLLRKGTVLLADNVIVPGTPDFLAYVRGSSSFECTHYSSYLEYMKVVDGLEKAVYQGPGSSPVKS

[2] = target: T2, rat liver COMT (Rattus norvegicus, UniProt P22734); assay: Rat liver COMT activity after oral administration of test compounds; assay type: in vivo; conditions: for Rat Liver COMT activity (% control): 3 mg/kg oral
T2 construct: the organs were immediately removed and homogenised in 5 mM phosphate buffer of pH 7.8; from tissue; host or cells: rat liver homogenate (Wistar rats, dosed orally; ex vivo activity)
T2 sequence (P22734 1-264): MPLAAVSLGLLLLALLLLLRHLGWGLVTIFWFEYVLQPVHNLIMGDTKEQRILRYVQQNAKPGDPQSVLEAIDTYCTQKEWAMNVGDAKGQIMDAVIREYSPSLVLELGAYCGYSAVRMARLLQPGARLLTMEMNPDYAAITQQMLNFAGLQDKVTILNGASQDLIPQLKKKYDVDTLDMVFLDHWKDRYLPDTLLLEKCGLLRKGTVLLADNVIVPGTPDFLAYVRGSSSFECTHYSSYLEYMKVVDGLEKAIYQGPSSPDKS

[3] = test system: Neuro 2A mouse neuroblastoma cells; assay: Cell toxicity: Neuro 2A cell viability (calcein-AM); assay type: cell-based; conditions: Neuro 2A cells, 30 μM, 24 h exposure
[4] = test system: plasma levels of L-DOPA and 3-O-methyl-L-DOPA (3-OMD); assay: Levels of L-DOPA and 3-O-methyl-L-DOPA in plasma of rats treated with L-DOPA plus benserazide; assay type: in vivo, rat; conditions: 3 mg/kg oral, 2 h after administration; for L-DOPA % increase (plasma level, % control) / 3-OMD % reduction (plasma level, % control): L-DOPA plus benserazide 1 h before plasma collection; for 3-OMD % reduction (plasma level, % control): given with minus sign; for L-Dopa/3-OMD: plasma ratio

O=[N+]([O-])c1cc(-c2nc(-c3c[n+]([O-])ccc3C(F)(F)F)no2)cc(O)c1O [Compound 18, 3-Nitro-5-[3-(1-oxy-4-trifluoromethyl-pyridin-3-yl)-[1,2,4]oxadiazol-5-yl]-benzene-1,2-diol]
COMT activity (% of control) [1]: 21.2 % of control
Rat Liver COMT activity (% control) ([2]; 1 h after administration): 5.2 % control
Rat Liver COMT activity (% control) ([2]; 3 h after administration): 19.9 % control
Rat Liver COMT activity (% control) ([2]; 6 h after administration): 43.0 % control
Rat Liver COMT activity (% control) ([2]; 9 h after administration): 57.4 % control
% of viable cells [3]: 93.4%
L-DOPA % increase (plasma level, % control) [4]: 61.4%
3-OMD % reduction (plasma level, % control) [4]: −63.9%
L-Dopa/3-OMD [4]: 4.5

Cc1c(-c2noc(-c3cc(O)c(O)c([N+](=O)[O-])c3)n2)ccc(C(F)(F)F)[n+]1[O-] [Compound 29, 5-[3-(2-Methyl-1-oxy-6-trifluoromethyl-pyridin-3-yl)-[1,2,4]oxadiazol-5-yl]-3-nitro-benzene-1,2-diol]
COMT activity (% of control) [1]: 10.9 % of control
Rat Liver COMT activity (% control) ([2]; 1 h after administration): 1.2 % control
Rat Liver COMT activity (% control) ([2]; 3 h after administration): 18.5 % control
Rat Liver COMT activity (% control) ([2]; 6 h after administration): 39.7 % control
Rat Liver COMT activity (% control) ([2]; 9 h after administration): 56.4 % control
% of viable cells [3]: 62.2%
L-DOPA % increase (plasma level, % control) [4]: 105.1%
3-OMD % reduction (plasma level, % control) [4]: −80.7%
L-Dopa/3-OMD [4]: 10.6

Cc1cc(C(F)(F)F)c(-c2noc(-c3cc(O)c(O)c([N+](=O)[O-])c3)n2)c[n+]1[O-] [Compound 30, 5-[3-(6-Methyl-1-oxy-4-trifluoromethyl-pyridin-3-yl)-[1,2,4]oxadiazol-5-yl]-3-nitro-benzene-1,2-diol]
COMT activity (% of control) [1]: 8.8 % of control
Rat Liver COMT activity (% control) ([2]; 1 h after administration): 6.3 % control
Rat Liver COMT activity (% control) ([2]; 3 h after administration): 34.8 % control
Rat Liver COMT activity (% control) ([2]; 6 h after administration): 41.2 % control
Rat Liver COMT activity (% control) ([2]; 9 h after administration): 54.5 % control
% of viable cells [3]: 81.8%
L-DOPA % increase (plasma level, % control) [4]: 103.5%
3-OMD % reduction (plasma level, % control) [4]: −75.0%
L-Dopa/3-OMD [4]: 8.1

Cc1c(C)c(C)[n+]([O-])c(Cl)c1-c1noc(-c2cc(O)c(O)c([N+](=O)[O-])c2)n1 [Compound 41, 5-[3-(2-Chloro-4,5,6-trimethyl-1-oxy-pyridin-3-yl)-[1,2,4]oxadiazol-5-yl]-3-nitrobenzene-1,2-diol]
COMT activity (% of control) [1]: 14 % of control
Rat Liver COMT activity (% control) ([2]; 1 h after administration): 21.2 % control
Rat Liver COMT activity (% control) ([2]; 3 h after administration): 9.3 % control
Rat Liver COMT activity (% control) ([2]; 6 h after administration): 18.8 % control
Rat Liver COMT activity (% control) ([2]; 9 h after administration): 39.7 % control
% of viable cells [3]: 95.1%
L-DOPA % increase (plasma level, % control) [4]: 95.2%
3-OMD % reduction (plasma level, % control) [4]: −72.3%
L-Dopa/3-OMD [4]: 7.1

O=[N+]([O-])c1cc(-c2nc(-c3ccc[n+]([O-])c3C(F)(F)F)no2)cc(O)c1O [Compound 42, 3-Nitro-5-[3-(1-oxy-2-trifluoromethyl-pyridin-3-yl)-[1,2,4]oxadiazol-5-yl]-benzene-1,2-diol]
COMT activity (% of control) [1]: 9.4 % of control
Rat Liver COMT activity (% control) ([2]; 1 h after administration): 3.6 % control
Rat Liver COMT activity (% control) ([2]; 3 h after administration): 6.1 % control
Rat Liver COMT activity (% control) ([2]; 6 h after administration): 12.3 % control
Rat Liver COMT activity (% control) ([2]; 9 h after administration): 30.9 % control
% of viable cells [3]: 96.4%
L-DOPA % increase (plasma level, % control) [4]: 30.7%
3-OMD % reduction (plasma level, % control) [4]: −43.4%
L-Dopa/3-OMD [4]: 2.3

O=[N+]([O-])c1cc(-c2nc(Cc3ccc(C(F)(F)F)[n+]([O-])c3)no2)cc(O)c1O [Compound 43, 3-Nitro-5-[3-(1′-oxy-6-trifluoromethyl-pyridine-3-ylmethyl)-[1,2,4]oxadiazol-5-yl]-benzene-1,2-diol]
COMT activity (% of control) [1]: 27.2 % of control
Rat Liver COMT activity (% control) ([2]; 1 h after administration): 16.1 % control
Rat Liver COMT activity (% control) ([2]; 3 h after administration): 30.6 % control
Rat Liver COMT activity (% control) ([2]; 6 h after administration): 64.3 % control
Rat Liver COMT activity (% control) ([2]; 9 h after administration): 77.9 % control
% of viable cells [3]: 101.5%
L-DOPA % increase (plasma level, % control) [4]: 74.9%
3-OMD % reduction (plasma level, % control) [4]: −48.3%
L-Dopa/3-OMD [4]: 3.4

Cc1c(Cl)c(C)[n+]([O-])c(Br)c1-c1noc(-c2cc(O)c(O)c([N+](=O)[O-])c2)n1 [Compound 47, 5-[3-(2-Bromo-5-chloro-4,6-dimethyl-1-oxy-pyridin-3-yl)-[1,2,4]oxadiazol-5-yl]-3-nitrobenzene-1,2-diol]
COMT activity (% of control) [1]: 25.2 % of control
Rat Liver COMT activity (% control) ([2]; 1 h after administration): 10.6 % control
Rat Liver COMT activity (% control) ([2]; 3 h after administration): 4.0 % control
Rat Liver COMT activity (% control) ([2]; 6 h after administration): 3.8 % control
Rat Liver COMT activity (% control) ([2]; 9 h after administration): 8.2 % control
% of viable cells [3]: 81.2%
L-DOPA % increase (plasma level, % control) [4]: 102.9%
3-OMD % reduction (plasma level, % control) [4]: −58.5%
L-Dopa/3-OMD [4]: 4.9

Cc1ccc(C(=O)c2cc(O)c(O)c([N+](=O)[O-])c2)cc1 [Tolcapone, 3,4-dihydroxy-4′ -methyl-5-nitrobenzophenone, reference compound]
COMT activity (% of control) [1]: 13.9 % of control
Rat Liver COMT activity (% control) ([2]; 1 h after administration): 18.3 % control
Rat Liver COMT activity (% control) ([2]; 3 h after administration): 28.6 % control
Rat Liver COMT activity (% control) ([2]; 6 h after administration): 56.8 % control
Rat Liver COMT activity (% control) ([2]; 9 h after administration): 83.9 % control
inhibition at 3 mg/kg ([2]; rat, po, read-out: COMT inhibition nine hours after administration): ~16%
% of viable cells [3]: 27.2%
L-DOPA % increase (plasma level, % control) [4]: 202.4%
3-OMD % reduction (plasma level, % control) [4]: −89.0%
L-Dopa/3-OMD [4]: 27.6
